Source: patent publication US20230000870A1, “METHODS OF TREATING CANCER IN BIOMARKER-IDENTIFIED PATIENTS WITH INHIBITORS OF CYCLIN-DEPENDENT KINASE 7 (CDK7)” (Syros Pharmaceuticals, Inc., priority 2019, published 2023)

What was measured:
CDK2/Cyclin E1 complex = CDK2/Cyclin E1 complex (Homo sapiens, UniProt P24941); assay: CDK2 kinase inhibition assay (Caliper/LabChip EZ Reader); assay type: biochemical; conditions: CDK2/Cyclin E1 0.5 nM, ATP 2 mM, 35 min at 27° C.
In short: (§1)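 Incubation times were set for ~20% (±5%) peptide phosphorylation by uninhibited enzyme: CDK7 35 min, CDK2 35 min (0.5 nM complex, 2 μM 5-FAM-CDK7tide, 2 mM MgCl2), CDK12 3 hr (50 nM, 2 μM 5-FAM-CDK9tide, 2 mM MgCl2), CDK9 15 min (8 nM, 2 μM 5-FAM-CDK9tide, 10 mM MgCl2). Read-out on LabChip EZ Reader, 27° C.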

[1] = target: CDK7/Cyclin H/MAT1 complex (Homo sapiens, UniProt P50613); assay: CDK7 kinase inhibition assay (Caliper/LabChip EZ Reader); assay type: biochemical; conditions: CDK7/Cyclin H/MAT1 6 nM, ATP 2 mM, 35 min at 27° C.
In short: as §1

[2] = target: T1, CDK12 (aa686-1082)/Cyclin K complex (Homo sapiens, UniProt Q9NYV4); assay: CDK12 kinase inhibition assay (Caliper/LabChip EZ Reader); assay type: biochemical; conditions: CDK12 (aa686-1082)/Cyclin K 50 nM, ATP 2 mM, 3 hr at 27° C.
T1 construct: CDK12 (aa686-1082)/Cyclin K complex
In short: as §1

CDK9/Cyclin T1 complex = CDK9/Cyclin T1 complex (Homo sapiens, UniProt P50750); assay: CDK9 kinase inhibition assay (Caliper/LabChip EZ Reader); assay type: biochemical; conditions: CDK9/Cyclin T1 8 nM, ATP 2 mM, 15 min at 27° C.
In short: as §1

HCC70 cells = assay: Inhibition of proliferation of HCC70 cells (CyQUANT Direct, 72 hour); assay type: cell-based, human; conditions: read-out: Inhibition of Proliferation of HCC70 Cells (calculated IC50)
Procedure: HCC70 cells: HCC70 cells are a cell line derived from human triple negative breast cancer. Representative compounds of the invention were tested at different concentrations (from 4 μM to […]; 0.5 log serial dilutions) for their ability to inhibit the proliferation of HCC70 cells. Known CDK inhibitors dinaciclib or N-((1S,3R)-3-((5-chloro-4-(1H-indol-3-yl) pyrimidin-2-yl)amino)cyclohexyl)-5-((E)-4-(dimethylamino)but-2-enamido)picolinamide and triptolide were used as positive controls. Cells were grown in ATCC-formulated RPMI-1640 Medium (ATCC 30-2001)+10% FBS. The cells were cultured at 37° C. in a humidified chamber in the presence of 5% CO2. Proliferation assays were conducted over a 72 hour time period. CyQUANT® Direct Cell Proliferation Assay (Life Technologies, Chicago, Ill. USA) was used to assess the anti-proliferative effects of the compounds following manufacturer's directions and utilizing the reagents supplied with the CyQUANT® Direct Cell kit.

Sequence of CDK9/Cyclin T1 complex (P50750 whole entry): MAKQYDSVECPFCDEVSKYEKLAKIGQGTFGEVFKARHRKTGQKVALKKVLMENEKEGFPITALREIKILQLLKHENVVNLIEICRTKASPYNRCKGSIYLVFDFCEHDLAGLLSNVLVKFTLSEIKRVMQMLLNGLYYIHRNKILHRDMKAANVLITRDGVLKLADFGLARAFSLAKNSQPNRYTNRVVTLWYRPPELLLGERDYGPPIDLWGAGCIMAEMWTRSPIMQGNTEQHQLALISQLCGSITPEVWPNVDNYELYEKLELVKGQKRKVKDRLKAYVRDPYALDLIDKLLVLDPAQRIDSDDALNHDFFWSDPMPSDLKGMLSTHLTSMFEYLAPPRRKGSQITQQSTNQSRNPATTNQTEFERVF
Sequence of CDK9/Cyclin T1 complex (O60563 whole entry partner): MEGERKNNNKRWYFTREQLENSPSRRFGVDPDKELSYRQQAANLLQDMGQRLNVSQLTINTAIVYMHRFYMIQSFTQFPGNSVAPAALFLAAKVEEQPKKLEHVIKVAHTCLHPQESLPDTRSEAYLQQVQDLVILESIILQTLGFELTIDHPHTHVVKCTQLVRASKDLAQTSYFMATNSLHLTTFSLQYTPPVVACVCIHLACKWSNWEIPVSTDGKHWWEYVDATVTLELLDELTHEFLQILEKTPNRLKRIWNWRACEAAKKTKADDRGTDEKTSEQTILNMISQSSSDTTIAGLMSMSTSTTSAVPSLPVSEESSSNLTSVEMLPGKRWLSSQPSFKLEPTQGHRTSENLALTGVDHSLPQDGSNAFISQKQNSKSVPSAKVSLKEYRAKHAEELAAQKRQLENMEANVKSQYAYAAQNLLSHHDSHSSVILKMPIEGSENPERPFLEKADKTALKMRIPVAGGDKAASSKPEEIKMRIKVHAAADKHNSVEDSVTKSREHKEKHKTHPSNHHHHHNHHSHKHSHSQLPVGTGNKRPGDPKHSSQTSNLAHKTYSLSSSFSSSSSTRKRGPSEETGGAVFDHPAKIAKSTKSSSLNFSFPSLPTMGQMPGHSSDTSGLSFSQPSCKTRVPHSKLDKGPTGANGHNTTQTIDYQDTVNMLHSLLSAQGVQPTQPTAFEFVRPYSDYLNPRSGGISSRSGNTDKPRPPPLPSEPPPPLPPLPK
T1 sequence (Q9NYV4 686-1082): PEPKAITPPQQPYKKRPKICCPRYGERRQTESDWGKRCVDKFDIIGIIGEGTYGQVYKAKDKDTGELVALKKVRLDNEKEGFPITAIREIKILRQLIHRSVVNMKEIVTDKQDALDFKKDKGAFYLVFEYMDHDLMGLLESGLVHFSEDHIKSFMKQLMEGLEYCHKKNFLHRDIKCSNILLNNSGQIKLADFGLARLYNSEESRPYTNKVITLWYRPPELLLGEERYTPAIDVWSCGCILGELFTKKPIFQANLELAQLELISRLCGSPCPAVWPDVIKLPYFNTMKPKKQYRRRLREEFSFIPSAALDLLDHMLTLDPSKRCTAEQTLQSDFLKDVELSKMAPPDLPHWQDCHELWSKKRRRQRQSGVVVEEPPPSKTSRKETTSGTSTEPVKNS
T1 sequence (O75909 whole entry partner, the tested form may be a part): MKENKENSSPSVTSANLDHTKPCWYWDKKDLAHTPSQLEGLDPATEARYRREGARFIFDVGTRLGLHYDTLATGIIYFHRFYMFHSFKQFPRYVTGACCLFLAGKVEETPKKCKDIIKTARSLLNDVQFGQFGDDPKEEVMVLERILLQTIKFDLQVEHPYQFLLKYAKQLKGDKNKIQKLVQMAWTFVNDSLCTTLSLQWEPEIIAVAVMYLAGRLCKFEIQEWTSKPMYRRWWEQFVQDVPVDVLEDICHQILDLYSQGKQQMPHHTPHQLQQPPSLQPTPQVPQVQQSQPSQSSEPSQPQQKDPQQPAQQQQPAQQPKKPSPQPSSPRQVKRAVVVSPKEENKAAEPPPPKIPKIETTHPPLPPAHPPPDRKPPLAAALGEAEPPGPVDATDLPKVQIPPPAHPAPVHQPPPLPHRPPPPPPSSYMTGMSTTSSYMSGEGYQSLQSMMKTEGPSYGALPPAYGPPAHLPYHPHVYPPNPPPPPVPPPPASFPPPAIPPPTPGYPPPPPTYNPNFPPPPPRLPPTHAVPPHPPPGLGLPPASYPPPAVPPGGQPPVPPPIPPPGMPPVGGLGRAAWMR
Sequence of CDK7/Cyclin H/MAT1 complex (P50613 whole entry): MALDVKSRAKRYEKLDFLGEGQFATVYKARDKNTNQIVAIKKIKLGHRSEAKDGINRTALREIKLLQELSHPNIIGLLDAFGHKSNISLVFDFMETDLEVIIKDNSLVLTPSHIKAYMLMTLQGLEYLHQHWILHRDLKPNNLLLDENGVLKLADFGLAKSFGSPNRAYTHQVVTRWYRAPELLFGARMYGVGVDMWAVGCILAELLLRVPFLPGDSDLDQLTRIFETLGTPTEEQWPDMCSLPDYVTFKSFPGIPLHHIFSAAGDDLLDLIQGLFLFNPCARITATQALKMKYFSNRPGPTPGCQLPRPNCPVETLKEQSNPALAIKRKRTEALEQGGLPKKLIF
Sequence of CDK7/Cyclin H/MAT1 complex (P51946 whole entry partner): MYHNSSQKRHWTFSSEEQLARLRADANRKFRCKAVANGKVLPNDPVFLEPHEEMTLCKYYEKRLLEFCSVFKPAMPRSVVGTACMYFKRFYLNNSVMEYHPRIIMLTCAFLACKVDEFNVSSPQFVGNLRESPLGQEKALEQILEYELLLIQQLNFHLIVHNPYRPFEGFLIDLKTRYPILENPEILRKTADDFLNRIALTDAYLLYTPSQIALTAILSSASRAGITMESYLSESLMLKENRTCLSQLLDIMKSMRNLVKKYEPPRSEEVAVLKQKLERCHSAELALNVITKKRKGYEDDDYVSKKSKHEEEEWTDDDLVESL
Sequence of CDK7/Cyclin H/MAT1 complex (P51948 whole entry partner): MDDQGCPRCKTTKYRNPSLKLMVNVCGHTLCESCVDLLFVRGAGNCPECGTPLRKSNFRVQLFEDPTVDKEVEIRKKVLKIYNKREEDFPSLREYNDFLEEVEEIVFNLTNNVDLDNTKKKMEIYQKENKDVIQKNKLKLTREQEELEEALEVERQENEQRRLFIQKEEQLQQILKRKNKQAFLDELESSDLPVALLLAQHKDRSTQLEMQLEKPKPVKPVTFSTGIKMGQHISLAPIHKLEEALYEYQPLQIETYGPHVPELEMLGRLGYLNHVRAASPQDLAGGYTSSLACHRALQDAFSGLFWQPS

| Structure (SMILES) | IC50 (CDK2/Cyclin E1 complex) [nM] | IC50 [1] [nM] | IC50 [2] [nM] | IC50 (CDK9/Cyclin T1 complex) [nM] | IC50 (HCC70 cells) [nM] |
| --- | --- | --- | --- | --- | --- |
| COC1CCN(C(=O)c2ccc3c(-c4nc(NC5CCCNC5)ncc4C(F)(F)F)c[nH]c3c2)C1 (centres unmarked) [Compound 280] | ≥ 5000 | 20 to 200 | 200 to 5000 | ≥ 5000 | 100 to 1000 |
| Cc1ccncc1-c1ccc2c(-c3nc(NC4CCCNC4)ncc3C(F)(F)F)c[nH]c2c1 (centres unmarked) [Compound 336] | 200 to 5000 | < 20 | 200 to 5000 | 200 to 5000 | < 100 |
| CNC(=O)c1cccc2c(-c3nc(NC4CCCNC4)ncc3C(F)(F)F)cn(C)c12 (centres unmarked) [Compound 307] | ≥ 5000 | ≥ 5000 | ≥ 5000 | ≥ 5000 | 1000 to 5000 |
| FC(F)(F)Sc1cnc(NC2CCCNC2)nc1-c1c[nH]c2ccccc12 (centres unmarked) [Compound 305] | 200 to 5000 | < 20 | 200 to 5000 | 200 to 5000 | 1000 to 5000 |
| O=C(c1ccc2c(-c3nc(NC4CCCNC4)ncc3C(F)(F)F)c[nH]c2c1)N1CC(O)C(F)(F)C1 (centres unmarked) [Compound 308] | 200 to 5000 | < 20 | 200 to 5000 | 200 to 5000 | 100 to 1000 |
| OCc1cncc(-c2ccc3c(-c4nc(NC5CCCNC5)ncc4C(F)(F)F)c[nH]c3c2)c1 (centres unmarked) [Compound 318] | 200 to 5000 | < 20 | 200 to 5000 | 200 to 5000 | 100 to 1000 |
| O=C1CCN(C(=O)c2ccc3c(-c4nc(NC5CCCNC5)ncc4C(F)(F)F)c[nH]c3c2)C1 (centres unmarked) [Compound 302] | 200 to 5000 | 20 to 200 | 200 to 5000 | 200 to 5000 | 100 to 1000 |
| O=C(c1cccc(-c2ccc3c(-c4nc(NC5CCCNC5)ncc4C(F)(F)F)c[nH]c3c2)c1)N1CCCC1 (centres unmarked) [Compound 340] | 200 to 5000 | 20 to 200 | 200 to 5000 | 200 to 5000 | 1000 to 5000 |
| CNC(=O)c1cccc2c(-c3nc(NC4CCCNC4)ncc3C(F)(F)F)cn(COC)c12 (centres unmarked) [Compound 304] | ≥ 5000 | ≥ 5000 | ≥ 5000 | ≥ 5000 | 1000 to 5000 |
| Cc1c(-c2ccc3c(-c4nc(NC5CCCNC5)ncc4C(F)(F)F)c[nH]c3c2)c[nH]c(=O)c1C#N (centres unmarked) [Compound 311] | 200 to 5000 | < 20 | 200 to 5000 | 200 to 5000 | 1000 to 5000 |
| CCN1CCCC(Nc2ncc(C(F)(F)F)c(-c3c[nH]c4cc(S(C)(=O)=O)ccc34)n2)C1 (centres unmarked) [Compound 298] | 200 to 5000 | < 20 | 200 to 5000 | ≥ 5000 | 100 to 1000 |
| O=C1CCc2ccc(-c3ccc4c(-c5nc(NC6CCCNC6)ncc5C(F)(F)F)c[nH]c4c3)cc2N1 (centres unmarked) [Compound 334] | 200 to 5000 | 20 to 200 | 200 to 5000 | 200 to 5000 | 100 to 1000 |
| Cn1cc(-c2nc(NC3CCCNC3)ncc2C(F)(F)F)c2cccc(S(C)(=O)=O)c21 (centres unmarked) [Compound 296] | ≥ 5000 | 20 to 200 | ≥ 5000 | ≥ 5000 | 1000 to 5000 |
| FC(F)(F)c1cnc(N[C@H]2CCCNC2)nc1-c1c[nH]c2cc(-c3ccc4ncsc4c3)ccc12 [Compound 343] | 200 to 5000 | 20 to 200 | 200 to 5000 | 200 to 5000 | 100 to 1000 |
| FC(F)(F)c1cnc(NC2CCCNC2)nc1-c1c[nH]c2cc(-c3ccc4[nH]cnc4c3)ccc12 (centres unmarked) [Compound 313] | 200 to 5000 | < 20 | 200 to 5000 | 200 to 5000 | 100 to 1000 |
| CS(=O)(=O)c1c(C#N)ccc2c(-c3nc(NC4CCCNC4)ncc3Cl)c[nH]c12 (centres unmarked) [Compound 294] | 200 to 5000 | < 20 | 200 to 5000 | 200 to 5000 | < 100 |
| CC(=O)NCc1cccc(-c2ccc3c(-c4nc(NC5CCCNC5)ncc4C(F)(F)F)c[nH]c3c2)c1 (centres unmarked) [Compound 338] | 200 to 5000 | 20 to 200 | 200 to 5000 | 200 to 5000 | 100 to 1000 |
| FC(F)(F)c1cnc(N[C@H]2CCCNC2)nc1-c1c[nH]c2cc(-c3cccc4cnccc34)ccc12 [Compound 344] | 200 to 5000 | 20 to 200 | 200 to 5000 | ≥ 5000 | 100 to 1000 |

More lines, main results first:

| IC50 (CDK2/Cyclin E1 complex) [nM] | IC50 [1] [nM] | IC50 [2] [nM] | IC50 (CDK9/Cyclin T1 complex) [nM] | Structure (SMILES) | IC50 (HCC70 cells) [nM] |
| --- | --- | --- | --- | --- | --- |
| 200 to 5000 | < 20 | 200 to 5000 | 200 to 5000 | CN(C)S(=O)(=O)c1ccc2c(-c3nc(NC4CCCNC4)ncc3C(F)(F)F)c[nH]c2c1 (centres unmarked) [Compound 357] | 1000 to 5000 |
| 200 to 5000 | < 20 | 200 to 5000 | 200 to 5000 | O=C(c1ccc2c(-c3nc(NC4CCCNC4)ncc3C(F)(F)F)c[nH]c2c1)N1CC(O)C(F)(F)C1 (centres unmarked) [Compound 349] | 100 to 1000 |
| ≥ 5000 | 20 to 200 | 200 to 5000 | ≥ 5000 | CS(=O)(=O)c1ccc2c(-c3nc(NC4CCCN(C5CC5)C4)ncc3C(F)(F)F)c[nH]c2c1 (centres unmarked) [Compound 381] | 1000 to 5000 |
| 200 to 5000 | 20 to 200 | 200 to 5000 | 200 to 5000 | CC(C)S(=O)(=O)c1ccc2c(-c3nc(NC4CCCNC4)ncc3C(F)(F)F)c[nH]c2c1 (centres unmarked) [Compound 346] | 100 to 1000 |
| 200 to 5000 | 20 to 200 | 200 to 5000 | 200 to 5000 | CC1CCNCC1Nc1ncc(C(F)(F)F)c(-c2c[nH]c3ccccc23)n1 (centres unmarked) [Compound 372] | 100 to 1000 |
| 200 to 5000 | 20 to 200 | 200 to 5000 | ≥ 5000 | CC1(C)CNC[C@@H](Nc2ncc(C(F)(F)F)c(-c3c[nH]c4cc(S(C)(=O)=O)ccc34)n2)C1 [Compound 376] | 100 to 1000 |
| ≥ 5000 | 20 to 200 | 200 to 5000 | ≥ 5000 | CP(C)(=O)c1ccc2c(-c3nc(NC4CCCNC4)ncc3C(F)(F)F)c[nH]c2c1 (centres unmarked) [Compound 354] | 1000 to 5000 |
| 200 to 5000 | < 20 | 200 to 5000 | 200 to 5000 | CN(C)S(=O)(=O)c1cccc2c(-c3nc(NC4CCCNC4)ncc3C(F)(F)F)c[nH]c12 (centres unmarked) [Compound 371] | < 100 |
| ≥ 5000 | 20 to 200 | ≥ 5000 | ≥ 5000 | CCCc1cnc(N[C@H]2CCCNC2)nc1-c1c[nH]c2c(S(C)(=O)=O)c(C#N)ccc12 [Compound 367] | 1000 to 5000 |
| ≥ 5000 | 20 to 200 | ≥ 5000 | ≥ 5000 | O=S1(=O)CCn2cc(-c3nc(N[C@H]4CCCNC4)ncc3C(F)(F)F)c3cccc1c32 [Compound 348] | 100 to 1000 |
